Key:
KRAS21R G4 = assay: FRET melting assay, KRAS21R G4; format: binding, human; conditions: G4 0.2 μM, ligand 1 μM, K-cacodylate buffer pH 7.4, 60 mM K+
Protocol: (§1) Fluorescence resonance energy transfer (FRET) studies with DNA sequences labelled at the 5′ and 3′ ends, were conducted to evaluate the G4 DNA stabilizing properties of IQcs (at 0.1 to 5 μM ligand concentrations). The G4-forming sequence KRAS21R[11], together with T-loop, a 26-mer hairpin double-stranded DNA (ds-DNA) sequence were used in the first screening assay. Reproducible IQc dose-dependent melting curves (Sup. Inf.; Figure S3) and stabilization temperature (ΔTm) values were obtained (Figure 2 and Table S5).
(§2) Figure 2 FRET stabilization temperatures (ΔTm) of KRAS21R G4 and hairpin ds-DNA (T-loop) at 0.2 μM, in K-cacodylate buffer (pH = 7.4, 60 mM K^+), stabilized by IQc derivatives and TMPyP4 at 1 μM. ^a) SD ≤ 0.2°C. TEXT PRINTED IN THE PICTURE: TMPyP4: ΔTm / °C ^a) (T-Loop): 16.0; ΔTm / °C ^a) (KRAS21R): 25.1 | 3e: ΔTm / °C ^a) (T-Loop): 6.5; ΔTm / °C ^a) (KRAS21R): 22.0 | 3d: ΔTm / °C ^a) (T-Loop): 5.6; ΔTm / °C ^a) (KRAS21R): 19.9 | 2d: ΔTm / °C ^a) (T-Loop): 6.1; ΔTm / °C ^a) (KRAS21R): 15.1 | 2a: ΔTm / °C ^a) (T-Loop): 1.5; ΔTm / °C ^a) (KRAS21R): 4.4 […]
(§3) Oligonucleotide sequences were purchased from Eurofins MWG Synthesis GmbH, Germany or STAB VIDA Genomics Lab, Caparica, Lisbon, Portugal. The labelled oligonucleotides used in the FRET assays had attached the donor fluorophore FAM (6-carboxyfluorescein) and the acceptor fluorophore TAMRA (6-carboxytetramethylrhodamine): KRAS21R: 5′-FAM-[…]-TAMRA-3′; KRAS32R: 5′-FAM-[…]-TAMRA-3′; UTR-1: 5′-FAM-GCGGCGGCGGAGG-TAMRA-3′; UTR-2: 5′-FAM-[…]-TAMRA-3; T-Loop:5′-FAM-[…]-TAMRA-3′; F21T: 5′-FAM-[…]-TAMRA-3′. Non-labelled oligonucleotides were used in FRET competition assays and in the spectroscopic studies: ds26: - d(5′-CAATCGGATCGAATT CGATCCGATTG-3′); KRAS21R: 5′-[…]-3′; HT21: 5′-[…]-3′. Each oligonucleotide was initially diluted to a storage solution at 100 μM in nuclease-free water (not DEPC-treated), purchased from Ambion Applied Biosystems UK.
(§4) The ability of indolo[3,2-c]quinolines to stabilize DNA sequences was investigated using a Fluorescence Resonance Energy Transfer (FRET) assay as reported elsewhere.
(§5) Figure S3 (cont.)| Concentration-dependent (0.1, 0.5, 1, 2, 3, 4 and 5 µM) FRET melting profiles of G4 structures and T-loop DNA with indolo[3,2-c]quinoline derivatives 1a, 2a-g and 3d-j in K-cacodylate buffer (pH 7.4, 60 mM K+). […]
(§6) Table S5 | FRET stabilization temperatures (ΔTm) of G4s sequences and ds-DNA (0.2 µM) stabilized by […]

[1] = system: T-loop, a 26-mer hairpin double-stranded DNA; assay: FRET melting assay, T-loop hairpin ds-DNA; format: binding; conditions: ds-DNA 0.2 μM, ligand 1 μM, K-cacodylate buffer pH 7.4, 60 mM K+
Protocol: as §1, §2, §3, §4, §5, §6

[2] = system: colon cancer cell lines with mutated KRAS; assay: Anti-proliferative activity, colon cancer cell lines with mutated KRAS; format: cell-based; conditions: Homo sapiens; range over HCT116 and SW620
Source text: These differences may be due to differing effects on cellular proliferation mechanisms, on cellular uptake and/or intracellular distribution. Assuming a passive diffusion membrane transport for IQcs, compound 2d is expected to accumulate more inside cells due to its predicted higher lipophilicity than compounds with an additional protonated basic group at physiologic pH (3d and 3e). Similarly, the tetra-cationic porphyrin TMPyP4, which is known to have low cell-membrane permeability, gave higher IC50 values.
HCT116 human colon carcinoma cells, SW620 human colorectal adenocarcinoma and HEK293 T human embryonic kidney cells were grown in Dulbecco's modified Eagle's medium (DMEM) supplemented with 10% fetal bovine serum, and 1% antibiotic/antimycotic (Invitrogen, Grand Island, NY, USA) and maintained at 37°C in a humidified atmosphere of 5% CO2. […] Following 72 h of compound exposure, cell viability was evaluated using the CellTiter 96 AQueous Non-Radioactive Cell Proliferation Assay (Promega, Madison, WI, USA), using 3-(4,5-dimethylthiazol-2-yl)-5-(3-carboxymethoxyphenyl)-2-(4-sulfophenyl)-2H-tetrazolium, inner salt (MTS) as previously described. Cell viability data were expressed as mean ± SEM or mean ± SD from at least three independent experiments. IC50 and IC65 values were determined using GaphPad Prism v.5.00 (GraphPad Software). […]

[3] = system: SW620 metastatic colon cancer cells; assay: Guava ViaCount assay, SW620; format: cell-based, human; conditions: IC65 concentration, 72 h
Source text: The ability of IQcs to induce cell death in colon cancer cell lines with different genotypes (HCT116 and SW620) and in the non-malignant cell line HEK293T was studied by a Guava Via Count assay and compared with the behaviour of 5-FU and TMPyP4 at equitoxic concentrations (IC50 and IC65). Results in Figure 7 show dose-dependent induction of cell death, mainly by apoptosis, by all tested compounds in the HCT116 colon cancer cell line. […] In SW620 metastatic colon cancer cells, cell death induction was highly dependent on the number and position of side chains in IQc compounds. […]
Figure 7 Evaluation of the effect of IQc on cell viability using the ViaCount assay. […] Results are expressed as the mean percentage (%) of viable (white), mid-apoptotic (grey) and dead (black) cells ± SEM, of at least three different experiments, for (a) IC50, and for (b) IC65 compound concentrations. a, p < 0.05; b, p < 0.01 from DMSO (vehicle control); c, p < 0.05; and d, p < 0.01 from 5-FU. […]
Taqman Real-time PCR reactions were performed using 1.5 µg of total RNA, using High Capacity RNA to cDNA kit, according to the manufacturer`s instruction. […] The comparative threshold cycle method was used to calculate the amplification factor, where the threshold cycle (Ct) is defined as the cycle number at which the fluorescence passes the fixed threshold intensity level. […]

HCT116 (colon) = assay: MTS short-term cytotoxicity assay, HCT116; format: cell-based, human; conditions: Homo sapiens, HCT-116; MTS assay, 72 h; read-out: IC50 HCT116
Protocol: (§7) Short-term anti-proliferative assays were carried out by two different assays using a panel of human cancer and non-malignant human cell lines. […] The transformed human embryonic kidney cell line HEK293T (wt KRAS) was sensitive to all tested drugs, including TMPyP4, a cationic porphyrin established as a G4 ligand, as well as the anticancer drug 5-fluorouracil (5-FU).
(§8) HCT116 human colon carcinoma cells, SW620 human colorectal adenocarcinoma and HEK293 T human embryonic kidney cells were grown in Dulbecco's modified Eagle's medium (DMEM) supplemented with 10% fetal bovine serum, and 1% antibiotic/antimycotic (Invitrogen, Grand Island, NY, USA) and maintained at 37°C in a humidified atmosphere of 5% CO2. Cells were seeded in 96 well plates at 5.000 cells/well. Twenty-four hours after cell plating, media was removed and replaced with fresh media containing test compounds and 5-FU (Sigma), a common cytotoxic agent used in colon cancer treatmen, or vehicle control (DMSO). Following 72 h of compound exposure, cell viability was evaluated using the CellTiter 96 AQueous Non-Radioactive Cell Proliferation Assay (Promega, Madison, WI, USA), using 3-(4,5-dimethylthiazol-2-yl)-5-(3-carboxymethoxyphenyl)-2-(4-sulfophenyl)-2H-tetrazolium, inner salt (MTS) as previously described. Cell viability data were expressed as mean ± SEM or mean ± SD from at least three independent experiments. IC50 and IC65 values were determined using GaphPad Prism v.5.00 (GraphPad Software). (Performed at Cell Function and Therapeutic Targeting Group, iMed.ULisboa)

SW620 (metastatic colon) = assay: MTS short-term cytotoxicity assay, SW620; format: cell-based; conditions: Homo sapiens, SW-620; MTS assay, 72 h; read-out: IC50 SW620
Protocol: as §7, §8

[4] = system: HEK293T (embryonic kidney); assay: MTS short-term cytotoxicity assay, HEK293T; format: cell-based; conditions: Homo sapiens, HEK-293T; MTS assay, 72 h; read-out: IC50 HEK293T
Protocol: as §7, §8

SMILES | FRET stabilization temperature ΔTm (KRAS21R) (KRAS21R G4) | FRET stabilization temperature ΔTm (T-loop) [1] [°C] | other results
CCN(CC)CCNc1ccc2c(c1)c1[nH]c3ccccc3c1c[n+]2C [2b] | 12.6 °C | 7.2 | –
CC(C)NCCCNc1ccc2c(c1)c1[nH]c3ccccc3c1c[n+]2C [2c] | 14.5 °C | 9.1 | –
C[n+]1cc2c3ccccc3[nH]c2c2cc(NCCCN3CCCCC3)ccc21 [2e] | 13.4 °C | 5.2 | –
C[n+]1cc2c3ccccc3[nH]c2c2cc(NCCCN3CCOCC3)ccc21 [2f] | 10.1 °C | 3.4 | –
CCN(CC)CCCC(C)Nc1ccc2c(c1)c1[nH]c3ccccc3c1c[n+]2C.[Cl-] (centres unmarked) [2g] | 15.4 °C | 1.9 | –
Brc1ccc2c3cn(Cc4ccccc4)c4ccc(Br)cc4c-3nc2c1 [3c] | – | 0.3 | –
C[n+]1cc2c3cc(NCCCN4CCOCC4)ccc3[nH]c2c2cc(NCCCN3CCOCC3)ccc21 [3f] | 14.1 °C | 4.9 | –
C[n+]1cc2c3ccc(NCCCN4CCOCC4)cc3[nH]c2c2cc(NCCCN3CCOCC3)ccc21 [3g] | 13.2 °C | 2.9 | –
CCN(CC)CCCC(C)Nc1ccc2[nH]c3c(c[n+](C)c4ccc(NC(C)CCCN(CC)CC)cc34)c2c1.[Cl-] (centres unmarked) [3h] | 11.8 °C | 1.7 | –
CCN(CC)CCCC(C)Nc1ccc2c(c1)[nH]c1c2c[n+](C)c2ccc(NC(C)CCCN(CC)CC)cc12.[Cl-] (centres unmarked) [3i] | 13.9 °C | 2.4 | –
CCN(CC)CCCNc1ccc2c(c1)[nH]c1c2c[n+](Cc2ccccc2)c2ccc(NCCCN(CC)CC)cc12.[Cl-] [3j] | 16.8 °C | 5.2 | –
O=c1[nH]cc(F)c(=O)[nH]1 [5-FU, 5-fluorouracil, reference compound] | – | – | IC50 [2]: 2.38 to 5.39 µM; Cell death induced, SW620 [3]: > 20%
Brc1ccc2ncc3c4ccccc4[nH]c3c2c1 [compound 1] | reduced or negligible ability to stabilize the KRAS21R G4 | 0.4 | FRET stabilization temperature ΔTm (KRAS21R) (KRAS21R G4; listed as 1a): 0.7 °C; IC50 (HCT116 (colon)): 9.91 µM; IC50 (SW620 (metastatic colon)): 10.7 µM; IC50 [4]: 8.03 µM
